In patent US20090312414A1, “Treatment Of Lower Urinary Tract Dysfunction With CB2-Receptor-Selective Agonists” (priority 2008, published 2009):

How the values were obtained:
CB2 receptor = CB2 receptor (Homo sapiens, UniProt P34972); assay: CB2 binding assay (displacement of radiolabeled agonist); conditions: for IC50: displaces 50% of a radiolabeled agonist
[1] = tested on: urethane-anesthetized rats, acetic acid model; assay: Cystometry in acetic acid bladder hyperactivity model; format: in vivo, rat; conditions: for Effect on intercontraction interval (ICI): any tested dose i.v., 20, 40 or 60 min after administration
Method: As used herein, the term “acute” means that the animals were dosed only one time, 30 minutes prior to taking the cystometry measurements (i.e., 30 minutes prior to the observation period). The acetic acid-induced model is an irritative model in which increased micturition frequency (decreased micturition interval) and reduced bladder capacity cystometry may be obtained after an intravesical infusion of a dilute solution of acetic acid (McMurray G, Casey J H, Naylor A M. Animal models in urological disease and sexual dysfunction. Br J Pharmacol. 2006; 147 Suppl:S62; Kakizaki H, de Groat W C. Role of spinal nitric oxide in the facilitation of the micturition reflex by bladder irritation. J Urol 1996; 155:355).
Adult female Wistar rats (Janvier, Le Genest Saint Lisles, France), weighing 225-250 g were used. They were delivered to the laboratory at least 5 days before the experiments in order to be acclimatized to laboratory conditions, and were given food (Teklad Global 16% Protein Rodent Diet, Harlan, Gannat, France) and water ad libitum. The animal room was maintained at 21-24° C. with a 12/12 hours alternating light-dark cycle (light phase 07:00-19:00).
Rats were anesthetized by intraperitoneal injection of urethane (1.5 g/kg). After making a midline incision of the abdomen, a polyethylene catheter (0.3 mm ID and 0.7 mm OD) was implanted in the bladder through the dome. An IV catheter (0.58 mm ID and 0.96 mm OD) was also introduced into a jugular vein for test substance administration.
CB2-receptor-selective agonists (compounds of Formulas II, III and IV) were initially dissolved in a vehicle containing a co-solvent mixture of Cremophor EL® (70%, BASF Corporation, Florham Park, N.J.) and ethanol (30%) as a 20-fold concentrated stock solution of the highest dose for testing. For lower doses, individual 20× stock solutions in Cremophor EL® (70%) and ethanol (30%) were also prepared by further dilution of the original 20× stock solution. Just prior to use, the appropriate 20× compound stock solution or vehicle was diluted 1:20 dilution (v:v) with saline to give the appropriate final concentration for dosing, and a single test substance or its vehicle were administered intravenously in a volume of 5 ml/kg and at an infusion rate of 0.2 ml/min.
Cystometric investigations were performed in the urethane anesthetized rats after bladder and jugular vein catheter implantation surgery. The bladder catheter was connected via a T-tube to a MX 860 Novatrans III Gold strain gauge (Medex Medical SARL, Nantes-Carquefou, France) and to a single-syringe infusion pump (70-2208 Model II Plus, Harvard Apparatus; Les Ulis, France). Physiological saline or 0.2% acetic acid (AA) in saline was infused into the bladder at a constant flow rate (0.05 ml/min), and intravesical pressure was recorded continuously using a MacLab/8e interface (ADInstruments Pty Ltd., Castle Hill, Australia) and the Chart software program. After a control period of 30 minutes (to calculate basal values), a single test substance or its vehicle were administered IV and the intravesical pressure was recorded for 1 hour after compound administration.
Intravesical pressure data were analyzed with Microsoft Excel software. The micturition parameters measured were the following: Basal Pressure (“BP,” mmHg); Threshold Pressure (“ThP,” pressure at which micturition occurs, mmHg); Amplitude of Micturition (“AM,” pressure between ThP and Micturition Pressure, mmHg); Intercontraction Interval (“ICI,” time between two subsequent micturitions, sec); Micturition Frequency (“MF,” number of micturition contractions per 15 minute interval); and Area Under the Curve (“AUC” per 15 minute interval, mmHg·sec) was calculated from the lowest intravesical pressure value during the 15 minute interval. Bladder capacity (“BC”) was measured in ml.
For each rat, basal values for each parameter were calculated as the mean of the last four micturitions before vehicle or test substance administration. […]

CB1 receptor = CB1 receptor (Homo sapiens, UniProt P21554); assay: biochemical; format: binding; conditions: displaces 50% of a radiolabeled agonist
Sequence of CB1 receptor (P21554 whole entry): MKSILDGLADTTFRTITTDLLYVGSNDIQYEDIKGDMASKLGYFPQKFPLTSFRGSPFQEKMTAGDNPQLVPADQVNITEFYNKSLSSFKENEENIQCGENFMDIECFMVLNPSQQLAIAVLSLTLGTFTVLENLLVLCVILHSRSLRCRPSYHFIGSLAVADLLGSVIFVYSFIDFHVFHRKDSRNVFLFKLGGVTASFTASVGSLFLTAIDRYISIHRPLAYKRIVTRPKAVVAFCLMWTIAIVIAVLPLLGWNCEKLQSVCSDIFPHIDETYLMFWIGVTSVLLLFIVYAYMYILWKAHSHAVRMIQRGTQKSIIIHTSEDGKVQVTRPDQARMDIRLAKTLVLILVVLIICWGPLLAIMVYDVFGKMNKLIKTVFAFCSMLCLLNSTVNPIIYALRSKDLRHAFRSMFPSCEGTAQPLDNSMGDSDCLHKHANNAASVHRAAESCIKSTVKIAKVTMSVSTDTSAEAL

Sequence of CB2 receptor (P34972 whole entry): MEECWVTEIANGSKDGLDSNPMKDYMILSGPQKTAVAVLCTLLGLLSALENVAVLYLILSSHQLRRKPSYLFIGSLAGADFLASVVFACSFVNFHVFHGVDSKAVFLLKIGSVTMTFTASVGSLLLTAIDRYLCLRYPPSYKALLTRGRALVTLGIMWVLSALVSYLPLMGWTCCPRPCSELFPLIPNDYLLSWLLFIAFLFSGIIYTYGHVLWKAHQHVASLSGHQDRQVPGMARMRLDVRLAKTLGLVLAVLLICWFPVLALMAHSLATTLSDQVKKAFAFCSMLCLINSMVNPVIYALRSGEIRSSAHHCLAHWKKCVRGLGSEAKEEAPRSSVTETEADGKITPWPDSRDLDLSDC

| Compound | CB2/CB1 affinity ratio (CB2 receptor) | IC50 (CB2 receptor) [nM] | Effect on threshold pressure (ThP) ([1]; 3 mg/kg i.v., all time points, vs basal values) | Effect on basal pressure (BP) ([1]; 3 mg/kg i.v., from 0 to 60 min, p<0.05) | Effect on intercontraction interval (ICI) ([1]; vs basal values) | IC50 (CB1 receptor) [nM] | Effect on threshold pressure (ThP) ([1]; 0.5 mg/kg i.v., at 20, 40 and 60 min, p<0.05) | Effect on threshold pressure (ThP) ([1]; 1.5 mg/kg i.v., at 40 min, p<0.05) | Effect on threshold pressure (ThP) ([1]; 5 mg/kg i.v., at 20 and 40 min, p<0.05) | Effect on basal pressure (BP) ([1]; 5 mg/kg i.v., at 20 min, p<0.05) | Effect on threshold pressure (ThP) ([1]; 15 mg/kg i.v., at 20 min, vs basal values) | Effect on basal pressure (BP) ([1]; any dose (1.5, 5, 15 mg/kg i.v.) or time point, vs basal values) |
| --- | --- | --- | --- | --- | --- | --- | --- | --- | --- | --- | --- | --- |
| CCCCCCC(C)(C)c1cc(O)c2c(c1)OC1CCCCCC21 (centres unmarked) [Formula III] | 14 | 6.5 | significantly increased | significantly increased | no effect | 92 | – | – | – | – | – | – |
| CCCCC(C)(C)c1cc(O)c([C@H]2C=C(CO)[C@H]3C[C@@H]2C3(C)C)c(O)c1 [Formula II] | 21 | 8.4 | – | – | no effect | 181 | Significant increases | Significant increases | Significant increases | significantly increased | – | – |
| O=S(=O)(NCC1CC1)c1ccc(Nc2ccc(Cl)cc2Cl)cc1C(F)(F)F [Formula IV, N-Cyclopropylmethyl-4-(2,4-dichloro-phenylamino)-2-trifluoromethyl-benzenesulfonamide] | 10 | 30 | – | – | no effect | 313 | – | – | – | – | significant increase | not changed |
